Like-named read-outs stand apart in the source and are kept apart here.
Test system: T1, OsD-LDH-FL
T1 construct: full-length 561 residues including mitochondrial targeting peptide, N-terminal GST tag kept (pGEX-6P-1), 87 kDa fusion, expressed in E. coli BL21 (DE3)
Assay: spectrophotometric cytochrome c reduction at […] nm, Hanes-Woolf
Type: biochemical, Oryza sativa subsp. indica
Conditions: 200 μM cytochrome c as electron acceptor, pH 8.35, 30°C, 50 mM potassium phosphate

| Km (read-out: D-2-HB / KM) | Km (read-out: D-LACTATE / KM) | SMILES |
| --- | --- | --- |
| 11 ± 0.34 µM | – | CC[C@@H](O)C(=O)O [D-2-hydroxybutyrate] |
| – | 41.4 ± 2.93 µM | C[C@@H](O)C(=O)O [D-lactate] |

— paper PMC5723347, “Silencing of D-Lactate Dehydrogenase Impedes Glyoxalase System and Leads to Methylglyoxal Accumulation and Growth Inhibition in Rice” (Frontiers in Plant Science, 2017)
